Measurements: patent US4345938A, “Herbicidal 2-haloacetanilides” (Monsanto Company, priority 1980, dated 1982)
Like-named read-outs stand apart in the source and are kept apart here.

Experiments:
Format in all cases: in vivo
Echinochloa crus-galli [1] = test: Upland seeded rice greenhouse test, barnyardgrass; details: Upland seeded rice, greenhouse
Procedure: In another comparative test in the greenhouse, the compound of Example 2 and Compound B were tested in Upland seeded rice. […] In contrast, Compound A, (a commercial rice herbicide), required 0.14 kg/ha (0.125 lb/A) to selectively control the same weed with rice safety also maintained at 1.12 kg/ha resulting in a selectivity factor of at least 8, i.e., less than one-half that of the compound of Example 2.

Echinochloa crus-galli [2] = test: Field transplant rice test, applied 0 DAT, EC; details: 0 h, read-out: Percent Inhibition, EC; for inhibition at 375 g/ha: 0.375 Kg/Ha; for inhibition at 750 g/ha: 0.75 Kg/Ha; for inhibition at 1500 g/ha: 1.5 Kg/Ha; for inhibition at 3000 g/ha: 3.0 Kg/Ha
Procedure: (§1) The test data in Table III for all compounds was obtained under identical test conditions. The weeds used in the tests herein have the following abbreviations in the tables: Echinochloa crus-galli (EC), Monochloria vaginalis (MV), Cyperus Serotinus (CS), Eleocharis Kuroguwai (EK) and Sagittaria trifolia (ST).
(§2) In further comparative tests, a preferred compound of this invention (Example 1) was tested in the field with prior art Compounds A-D. These tests were conducted under conditions reflecting herbicide application times generally favorable to all herbicides in the test. The timing of application of herbicides to transplant rice is very important, whether, as in some instances, prior to transplanting the rice; in other instances, at the time of transplanting or else after transplanting. Application times are conventionally referred to as "days before transplant" (DBT) or "days after transplant" ("DAT"). The field test data in Table IV was obtained from a test in which the herbicides were applied at the time of transplant, i.e., "0 DAT", with observations being made weekly up to six weeks after transplant ("WAT") beginning at two weeks after transplant; for illustrative and representative purposes, only the early, middle and late period observations, i.e., 2 WAT, 4 WAT and 6 WAT, are shown in Table IV. The data in Table IV is for rates of application common to all herbicides in the test, i.e., from 3.0 kg/ha (2.67 lb/A) down to 0.375 kg/ha (0.34 lb/A). All herbicides were applied at their actual or expected use rates, i.e., as granules containing 2.5% by weight herbicide for the compound of Example 1, Compounds B, C and D and 5.0% by weight for Compound A.

Eleocharis kuroguwai = test: Field transplant rice test, applied 0 DAT, EK; details: 0 h, read-out: Percent Inhibition, EK; for inhibition at 375 g/ha: 0.375 Kg/Ha; for inhibition at 750 g/ha: 0.75 Kg/Ha; for inhibition at 1500 g/ha: 1.5 Kg/Ha; for inhibition at 3000 g/ha: 3.0 Kg/Ha
Procedure: as §1, §2

Monochoria vaginalis = test: Greenhouse transplant rice test, MV; details: Pontederia vaginalis, about 3 WAT, read-out: Percent Inhibition, MV
Source text: The test procedure used in this greenhouse test is as follows: Ray silt loam top soil containing about 0.05% by weight of krillium and sifted through a […] screen is fumigated about 5-10 days prior to use. Pots are then filled with said Ray silt loam soil to a level to allow for a 1 in. (2.54 cm) flooding depth. Rice plants (Bluebelle) of 2 to 3 weeks age are transplanted to the pots and bulbs or seeds of the test weeds also planted in the pots. The pots are then flooded and the test chemical applied to the surface of the flood water. The flood water is reduced to allow for germination of the Echinochloa crus-galli (barnyardgrass) seed and subsequently reflooded and maintained in that condition. Observations of percent inhibition using a scale of 0-100% are made about 3 weeks after transplant (WAT).
as §1

Q: Which results are given for CCCCOCN(C(=O)CCl)c1c(CC)cccc1CC [Compound A, 2',6'-diethyl-N-(n-butoxymethyl)-2-chloroacetanilide]?
A: rate for selective control of Echinochloa crus-galli (Echinochloa crus-galli [1]): 0.14 kg/ha; selectivity factor, Echinochloa crus-galli in Upland seeded rice (Echinochloa crus-galli [1]): at least 8; inhibition at 375 g/ha (Echinochloa crus-galli [2]; 2 WAT): 60%; inhibition at 375 g/ha (Echinochloa crus-galli [2]; 4 WAT): 72%; inhibition at 375 g/ha (Echinochloa crus-galli [2]; 6 WAT): 60%; inhibition at 750 g/ha (Echinochloa crus-galli [2]; 2 WAT): 90%; inhibition at 750 g/ha (Echinochloa crus-galli [2]; 4 WAT): 100%; inhibition at 750 g/ha (Echinochloa crus-galli [2]; 6 WAT): 100%; inhibition at 1500 g/ha (Echinochloa crus-galli [2]; 2 WAT): 95%; inhibition at 1500 g/ha (Echinochloa crus-galli [2]; 4 WAT): 100%; inhibition at 1500 g/ha (Echinochloa crus-galli [2]; 6 WAT): 97%; inhibition at 3000 g/ha (Echinochloa crus-galli [2]; 2 WAT): 98%; inhibition at 3000 g/ha (Echinochloa crus-galli [2]; 4 WAT): 100%; inhibition at 3000 g/ha (Echinochloa crus-galli [2]; 6 WAT): 100%; inhibition at 375 g/ha (Eleocharis kuroguwai; 2 WAT): 65%; inhibition at 375 g/ha (Eleocharis kuroguwai; 4 WAT): 33%; inhibition at 375 g/ha (Eleocharis kuroguwai; 6 WAT): 10%; inhibition at 750 g/ha (Eleocharis kuroguwai; 2 WAT): 45%; inhibition at 750 g/ha (Eleocharis kuroguwai; 4 WAT): 22%; inhibition at 750 g/ha (Eleocharis kuroguwai; 6 WAT): 0%; inhibition at 1500 g/ha (Eleocharis kuroguwai; 2 WAT): 83%; inhibition at 1500 g/ha (Eleocharis kuroguwai; 4 WAT): 78%; inhibition at 1500 g/ha (Eleocharis kuroguwai; 6 WAT): 28%; inhibition at 3000 g/ha (Eleocharis kuroguwai; 2 WAT): 90%; inhibition at 3000 g/ha (Eleocharis kuroguwai; 4 WAT): 88%; inhibition at 3000 g/ha (Eleocharis kuroguwai; 6 WAT): 68%; inhibition at 280 g/ha (Monochoria vaginalis; 0.28 Kg/Ha): 98%; inhibition at 560 g/ha (Monochoria vaginalis; 0.56 Kg/Ha): 100%; inhibition at 1120 g/ha (Monochoria vaginalis; 1.12 Kg/Ha): 100%; inhibition at 2240 g/ha (Monochoria vaginalis; 2.24 Kg/Ha): 100%

Q: How did the inhibition at 375 g/ha (Echinochloa crus-galli [2]; 2 WAT) turn out when CCCCOCCN(C(=O)CCl)c1c(CC)cccc1CC [Compound B, 2',6'-diethyl-N-(n-butoxyethyl)-2-chloroacetanilide] was run?
A: 55%

Q: What about the inhibition at 375 g/ha (Echinochloa crus-galli [2]; 4 WAT) of the same compound?
A: 68%

Q: And the inhibition at 375 g/ha (Echinochloa crus-galli [2]; 6 WAT)?
A: 37%

Q: And the inhibition at 750 g/ha (Echinochloa crus-galli [2]; 2 WAT)?
A: 87%

Q: And the inhibition at 750 g/ha (Echinochloa crus-galli [2]; 4 WAT)?
A: 93%

Q: What about the inhibition at 750 g/ha (Echinochloa crus-galli [2]; 6 WAT) of the same compound?
A: 88%

Q: And the inhibition at 1500 g/ha (Echinochloa crus-galli [2]; 2 WAT)?
A: 90%

Q: And the inhibition at 1500 g/ha (Echinochloa crus-galli [2]; 4 WAT)?
A: 98%

Q: What about the inhibition at 1500 g/ha (Echinochloa crus-galli [2]; 6 WAT) of the same compound?
A: 98%

Q: And the inhibition at 3000 g/ha (Echinochloa crus-galli [2]; 2 WAT)?
A: 97%

Q: And the inhibition at 3000 g/ha (Echinochloa crus-galli [2]; 4 WAT)?
A: 100%

Q: And the inhibition at 3000 g/ha (Echinochloa crus-galli [2]; 6 WAT)?
A: 100%

Q: What about the inhibition at 375 g/ha (Eleocharis kuroguwai; 2 WAT) of the same compound?
A: 48%

Q: What about the inhibition at 375 g/ha (Eleocharis kuroguwai; 4 WAT) of the same compound?
A: 37%

Q: What about the inhibition at 375 g/ha (Eleocharis kuroguwai; 6 WAT) of the same compound?
A: 7%

Q: What about the inhibition at 750 g/ha (Eleocharis kuroguwai; 2 WAT) of the same compound?
A: 63%

Q: What about the inhibition at 750 g/ha (Eleocharis kuroguwai; 4 WAT) of the same compound?
A: 42%

Q: What about the inhibition at 750 g/ha (Eleocharis kuroguwai; 6 WAT) of the same compound?
A: 0%

Q: And the inhibition at 1500 g/ha (Eleocharis kuroguwai; 2 WAT)?
A: 73%

Q: And the inhibition at 1500 g/ha (Eleocharis kuroguwai; 4 WAT)?
A: 65%

Q: What about the inhibition at 1500 g/ha (Eleocharis kuroguwai; 6 WAT) of the same compound?
A: 17%

Q: What about the inhibition at 3000 g/ha (Eleocharis kuroguwai; 2 WAT) of the same compound?
A: 100%

Q: What about the inhibition at 3000 g/ha (Eleocharis kuroguwai; 4 WAT) of the same compound?
A: 94%

Q: And the inhibition at 3000 g/ha (Eleocharis kuroguwai; 6 WAT)?
A: 72%

Q: How did the inhibition at 375 g/ha (Echinochloa crus-galli [2]; 2 WAT) turn out when CCCCOCN(C(=O)CCl)c1c(C)cccc1C(C)(C)C [Compound C, 2'-methyl-6'-tert-butyl-N-(n-butoxymethyl)-2-chloroacetanilide] was run?
A: 98%

Q: And the inhibition at 375 g/ha (Echinochloa crus-galli [2]; 4 WAT)?
A: 100%

Q: What about the inhibition at 375 g/ha (Echinochloa crus-galli [2]; 6 WAT) of the same compound?
A: 98%

Q: And the inhibition at 750 g/ha (Echinochloa crus-galli [2]; 2 WAT)?
A: 100%

Q: And the inhibition at 750 g/ha (Echinochloa crus-galli [2]; 4 WAT)?
A: 100%

Q: And the inhibition at 750 g/ha (Echinochloa crus-galli [2]; 6 WAT)?
A: 100%

Q: And the inhibition at 1500 g/ha (Echinochloa crus-galli [2]; 2 WAT)?
A: 100%

Q: And the inhibition at 1500 g/ha (Echinochloa crus-galli [2]; 4 WAT)?
A: 100%

Q: And the inhibition at 1500 g/ha (Echinochloa crus-galli [2]; 6 WAT)?
A: 100%

Q: And the inhibition at 3000 g/ha (Echinochloa crus-galli [2]; 2 WAT)?
A: 98%

Q: What about the inhibition at 3000 g/ha (Echinochloa crus-galli [2]; 4 WAT) of the same compound?
A: 100%

Q: And the inhibition at 3000 g/ha (Echinochloa crus-galli [2]; 6 WAT)?
A: 100%

Q: And the inhibition at 375 g/ha (Eleocharis kuroguwai; 2 WAT)?
A: 63%

Q: And the inhibition at 375 g/ha (Eleocharis kuroguwai; 4 WAT)?
A: 52%

Q: What about the inhibition at 375 g/ha (Eleocharis kuroguwai; 6 WAT) of the same compound?
A: 18%

Q: And the inhibition at 750 g/ha (Eleocharis kuroguwai; 2 WAT)?
A: 68%

Q: And the inhibition at 750 g/ha (Eleocharis kuroguwai; 4 WAT)?
A: 58%

Q: And the inhibition at 750 g/ha (Eleocharis kuroguwai; 6 WAT)?
A: 18%

Q: And the inhibition at 1500 g/ha (Eleocharis kuroguwai; 2 WAT)?
A: 85%

Q: What about the inhibition at 1500 g/ha (Eleocharis kuroguwai; 4 WAT) of the same compound?
A: 93%

Q: And the inhibition at 1500 g/ha (Eleocharis kuroguwai; 6 WAT)?
A: 67%

Q: And the inhibition at 3000 g/ha (Eleocharis kuroguwai; 2 WAT)?
A: 82%

Q: And the inhibition at 3000 g/ha (Eleocharis kuroguwai; 4 WAT)?
A: 90%

Q: And the inhibition at 3000 g/ha (Eleocharis kuroguwai; 6 WAT)?
A: 80%

Q: With CCCOCCN(C(=O)CCl)c1c(CC)cccc1CC [Compound D, 2',6'-diethyl-N-(n-propoxyethyl)-2-chloroacetanilide] as the compound, how does the inhibition at 375 g/ha (Echinochloa crus-galli [2]; 2 WAT) read?
A: 73%

Q: What about the inhibition at 375 g/ha (Echinochloa crus-galli [2]; 4 WAT) of the same compound?
A: 88%

Q: And the inhibition at 375 g/ha (Echinochloa crus-galli [2]; 6 WAT)?
A: 83%

Q: And the inhibition at 750 g/ha (Echinochloa crus-galli [2]; 2 WAT)?
A: 90%

Q: And the inhibition at 750 g/ha (Echinochloa crus-galli [2]; 4 WAT)?
A: 100%

Q: What about the inhibition at 750 g/ha (Echinochloa crus-galli [2]; 6 WAT) of the same compound?
A: 100%

Q: And the inhibition at 1500 g/ha (Echinochloa crus-galli [2]; 2 WAT)?
A: 97%

Q: And the inhibition at 1500 g/ha (Echinochloa crus-galli [2]; 4 WAT)?
A: 98%

Q: What about the inhibition at 1500 g/ha (Echinochloa crus-galli [2]; 6 WAT) of the same compound?
A: 93%

Q: What about the inhibition at 3000 g/ha (Echinochloa crus-galli [2]; 2 WAT) of the same compound?
A: 99%

Q: What about the inhibition at 3000 g/ha (Echinochloa crus-galli [2]; 4 WAT) of the same compound?
A: 100%

Q: And the inhibition at 3000 g/ha (Echinochloa crus-galli [2]; 6 WAT)?
A: 100%

Q: And the inhibition at 375 g/ha (Eleocharis kuroguwai; 2 WAT)?
A: 62%

Q: And the inhibition at 375 g/ha (Eleocharis kuroguwai; 4 WAT)?
A: 20%

Q: What about the inhibition at 375 g/ha (Eleocharis kuroguwai; 6 WAT) of the same compound?
A: 0%

Q: And the inhibition at 750 g/ha (Eleocharis kuroguwai; 2 WAT)?
A: 63%

Q: And the inhibition at 750 g/ha (Eleocharis kuroguwai; 4 WAT)?
A: 40%

Q: And the inhibition at 750 g/ha (Eleocharis kuroguwai; 6 WAT)?
A: 10%

Q: What about the inhibition at 1500 g/ha (Eleocharis kuroguwai; 2 WAT) of the same compound?
A: 70%

Q: What about the inhibition at 1500 g/ha (Eleocharis kuroguwai; 4 WAT) of the same compound?
A: 67%

Q: And the inhibition at 1500 g/ha (Eleocharis kuroguwai; 6 WAT)?
A: 47%

Q: And the inhibition at 3000 g/ha (Eleocharis kuroguwai; 2 WAT)?
A: 85%

Q: And the inhibition at 3000 g/ha (Eleocharis kuroguwai; 4 WAT)?
A: 75%

Q: What about the inhibition at 3000 g/ha (Eleocharis kuroguwai; 6 WAT) of the same compound?
A: 22%
